Where no end group is shown, it is not given here.

Data on eight molecules can be found in US20060128014A1, “Compositions and methods for culturing stem cells” (priority 2002, published 2006).

For data set [1] the following is noted: cited from earlier work.
In data set [2] the test system is adult derived neural stem cells. Put plainly: Proliferation of adult derived neural stem cells by increased cAMP (unpublished results). Conditions: increased levels of cAMP. In kind it is cell-based.
The test system of another data set is hippocampal CA1 region. The note with it: cited from earlier work; for delayed neuronal death in the hippocampal CA1 region: transient forebrain ischemia.
The next data set has as its system adult neural stem cells. Put plainly: Intracellular ATP assay (ViaLight kit) on cultured adult neural stem cells. In kind it is cell-based, mice. The note with it: for maximal amplitudes of responses: vanadate and EGF each added alone, compared. The method, then: Neurosphere cultures: The anterior lateral wall of the lateral ventricle of 5-6 week old mice was enzymatically dissociated in 0.8 mg/ml hyaluronidase and 0.5 mg/ml trypsin in DMEM containing 4.5 mg/ml glucose and 80 units/ml DNase at 37° C. for 20 min. The cells were gently triturated and mixed with three volumes of Neurosphere medium (DMEM/F12, B27 supplement, 125 mM HEPES pH7.4) containing 20 ng/ml EGF (unless otherwise stated), 100 units/ml penicillin and 100 _g/ml streptomycin. After passing through a 70 _m strainer, the cells were pelleted at 160×g for 5 min. The supernatant was subsequently removed and the cells resuspended in Neurosphere medium supplemented as above, plated out in culture dishes and incubated at 37° C. Neurospheres were ready to be split approximately 7 days after plating.
To split the neurospheres, they were collected by centrifugation at 160×g for 5 min. The conditioned supernatant (conditioned medium) was removed and saved. The neurospheres were resuspended in 0.5 ml Trypsin/EDTA in HBSS (1×), incubated at 37° C. for 2 min and triturated gently to aid dissociation. Following a further 3 min incubation at 37° C. and trituration, 3 volumes of ice cold NSPH-media-EGF were added to stop further trypsin activity. The cells were pelleted at 220×g for 4 min, and resuspended in a 1:1 mixture of fresh Neurosphere medium and conditioned medium. EGF was supplemented to 20 ng/ml and the culture plated out and incubated at 37° C.
Where stated, a minimal Neurosphere medium was used containing BIT supplement in place of B27 supplement.
Neurosphere assays: NSC, cultured as described above, from passage 2 were seeded in DMEM/F12 supplemented with B27 into a 96-well plate as single cells (10000 cells/well), to which agents were added at the concentrations indicated.
After 3 days of treatment, intracelluar ATP was measured using the ViaLight kit (BioWhittaker) according to the manufacturer's instructions.

A further data set concerns neural stem cells. Put plainly: Sphere formation in presence of vanadate and in combination with PACAP. In kind it is cell-based. The note with it: DMEM/F12 with B27, after 7 days. The method, then:
Cells were isolated as described (see section 5.5.1). Aliquots of 1 ml cell suspension per well equivalent to one brain per well were plated in DMEM/F12 supplemented with B27.
10 uM Vanadate or 10 uM Vanadate +300 nM PACAP was added to the cultures. Fresh substances were added every second day. After 7 days sphereformation was observed.

Another data set deals with human neural stem cells. Put plainly: Neurosphere formation of human neural stem cells. In kind it is cell-based. The protocol: Culture of human neural stem cells: Human neural stem cells were isolated and cultured under adherent conditions according to the protocol described in Palmer et al., 2001, Nature 411(6833):42-43, modified to exclude the additives PDGF and cystatinC and using B27 supplement instead of BIT. The cells were cultured for 10-16 passages in DMEM/F12 with B27-supplement and EGF (20 ng/ml) and FGF-2 (20 ng/ml). Cells were detached with Trypsin/EDTA, rinsed three times and then replated in suspension culture plastic wells in DMEM/F12 and B27-supplement for 24 h without growth factors. Thereafter factors (Vanadate, EGF or EGF+FGF2) were added for one day.

The conditions of data set [3]: experimental animals; cited from earlier work.

Consider `[Na+].[O]=[V](=[O])[O-]` [NaVO3], for which, in data set [1] (oral), the “most common adverse effect” value is on record as “mild gastrointestinal intolerance”.
For the molecule `COc1ccc(C2CNC(=O)C2)cc1OC1CCCC1` (centres unmarked) [rolipram], the proliferation entry in data set [2] is “trigger proliferation”.
Take `[Na+].[Na+].[Na+].[O]=[V]([O-])([O-])[O-]` [sodium orthovanadate]: in the data set on hippocampal CA1 region, the “delayed neuronal death in the hippocampal CA1 region” value is “rescued cells from delayed neuronal death”.
Turning to `[O]=[V]([O-])([O-])[O-]` [vanadate], in the data set with adult neural stem cells (added alone, growth media supplemented with BIT or B27, 3 days of treatment, FIG. 1), the “proliferative effect (intracellular ATP levels)” value is reported as “concentration dependent proliferative effect”. In addition, the “ATP-levels with EGF and increasing concentrations of vanadate” value in the data set on adult neural stem cells (in addition to EGF (3 nM), FIG. 7) is recorded as “not significantly altered”. In the data set on adult neural stem cells (in the presence of EGF, supplement BIT or B27, FIGS. 2 and 3), the “proliferative effect in combination with EGF” value is recorded as “additive”. Moreover, the “proliferative effect in combination with PACAP” value in the data set with adult neural stem cells (in the presence of PACAP, supplement BIT or B27, FIGS. 4, 5) is “additive”. Further, the “maximal amplitudes of responses” value in the data set on adult neural stem cells (FIGS. 2 and 3) is given as “equal in size”. Also, the sphere formation result in the data set with neural stem cells (10 uM Vanadate + 300 nM PACAP, FIG. 6b) was “Sphereforming capacity was noted”; in the data set on neural stem cells (10 uM Vanadate alone, FIG. 6a), “Sphereforming capacity was noted”; in the data set on human neural stem cells (10 uM, after 1 d, DMEM/F12 and B27-supplement, FIG. 8a) it was “formed numerous spheres”. The “adherence of the spheres” value with human neural stem cells (10 uM, after 1 d, FIG. 8a) is recorded as “virtually all spheres were free floating”. For the same molecule, the tolerability in humans entry in data set [1] (humans) was “tolerated”. Also, the “effect in patients suffering from diabetes” value in data set [1] (patients suffering from diabetes) was “positive results”. Further, the blood glucose levels result in data set [3] is “reduces blood glucose levels”. Moreover, the neuroprotection entry with hippocampal CA1 region (experimental animals) is “neuroprotective”.
Take “EGF: epidermal growth factor, protein growth factor”: the “maximal amplitudes of responses” value in the data set on adult neural stem cells (FIGS. 2 and 3) is given as “equal in size”.
On to FGF-2: protein growth factor, for which the “neurosphere formation with growth factors” value in the data set on human neural stem cells (growth factors added for one day, FIG. 8b and 8c) was “reduced neurosphere formation”.
IGF-1: insulinlike growth factor-1: the “delayed neuronal death in the hippocampal CA1 region” value with hippocampal CA1 region is listed as “rescued cells from delayed neuronal death”.
For “PACAP: neuropeptide acting on cyclase activating GPCRs (HSDGIFTDSYSRYRKQMAVKKYLAAVLGKRYKQRVKNK; ends and bridges not checked; UniProt P18509 132-169, looked up)”, in data set [2], the proliferation entry is recorded as “trigger proliferation”.
